Measurements taken from paper PMC3055678 (ACS Medicinal Chemistry Letters, 2011).

Key:
panel of 402 kinases = test: Ambit KINOMEscan ATP-site competition binding, panel of 402 kinases; settings: concentration of 10 μM, Erk5 = BMK1
BMK1 [1] = molecular target: T1, BMK1 (Homo sapiens, UniProt Q13164); test: Ambit KINOMEscan single-point score; format: binding; settings: concentration of 10 μM
BMK1 [2] = molecular target: T1, BMK1; test: EGF-stimulated BMK1 autophosphorylation in HeLa cells; settings: concentration of 1 μM

T1 sequence (Q13164 whole entry): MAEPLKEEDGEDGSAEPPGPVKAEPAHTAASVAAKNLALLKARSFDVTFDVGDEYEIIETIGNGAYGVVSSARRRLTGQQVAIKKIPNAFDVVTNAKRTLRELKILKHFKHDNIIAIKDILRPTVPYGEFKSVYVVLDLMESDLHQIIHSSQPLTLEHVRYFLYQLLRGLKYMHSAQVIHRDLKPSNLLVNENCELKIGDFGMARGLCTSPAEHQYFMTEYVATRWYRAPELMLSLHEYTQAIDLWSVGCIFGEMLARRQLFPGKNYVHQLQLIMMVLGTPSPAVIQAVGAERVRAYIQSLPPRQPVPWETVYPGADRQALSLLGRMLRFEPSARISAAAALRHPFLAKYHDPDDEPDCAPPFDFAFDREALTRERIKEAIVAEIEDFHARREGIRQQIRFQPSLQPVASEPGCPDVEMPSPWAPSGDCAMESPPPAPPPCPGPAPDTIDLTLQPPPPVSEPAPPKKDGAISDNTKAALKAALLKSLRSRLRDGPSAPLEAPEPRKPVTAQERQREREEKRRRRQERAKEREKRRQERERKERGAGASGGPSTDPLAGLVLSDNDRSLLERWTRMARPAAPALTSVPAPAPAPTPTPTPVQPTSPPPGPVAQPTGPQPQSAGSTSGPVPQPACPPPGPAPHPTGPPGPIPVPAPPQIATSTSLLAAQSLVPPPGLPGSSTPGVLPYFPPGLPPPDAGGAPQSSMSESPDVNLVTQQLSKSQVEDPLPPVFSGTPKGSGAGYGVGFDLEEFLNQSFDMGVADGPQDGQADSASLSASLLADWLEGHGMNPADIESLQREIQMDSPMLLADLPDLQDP

Q: Which results are given for `COc1cc(N2CCN(C)CC2)ccc1Nc1ncc2c(n1)N(C)c1ccccc1C(=O)N2C` [compound 11]?
A: kinase hits (kinases that exhibited greater than 95% displacement from an immobilized ligand) (panel of 402 kinases): DCAMKL1, DCAMKL2, ERK5, FRK, MNK2, PKD1, PKD2, RSK4∼b, TAO1, TAO3, TNK1, TNK2, ULK1, ULK2; ambit score against BMK1 (BMK1 [1]): 0; inhibition of BMK1 autophosphorylation (BMK1 [2]): significantly inhibited

Q: Which “kinase hits (kinases that exhibited greater than 95% displacement from an immobilized ligand)” value (panel of 402 kinases) does the source give for `COc1cc(N2CCN(C)CC2)ccc1Nc1ncc2c(n1)N(C)c1ccccc1C(=O)N2` [compound 10] here?
A: ABL1(F317I), BRK, C-FMS, DCAMKL1, DCAMKL2, ERK5, FRK, GAK, KIT(L576P), MYLK4, TNK1, TNK2

Q: What about the “ambit score against BMK1” value (BMK1 [1]) of the same compound?
A: 0.5
